According to patent publication US8431593B2, “Heteroaryl amide derivatives” (H. Lundbeck A/S, priority 2006, dated 2013):
pIC50: −log10 of the molar value.

Biological target: T1, P2X7 receptor (Homo sapiens, UniProt Q99572)
T1 construct: host or cells: SH-SY5Y
T1 sequence (Q99572 1-595): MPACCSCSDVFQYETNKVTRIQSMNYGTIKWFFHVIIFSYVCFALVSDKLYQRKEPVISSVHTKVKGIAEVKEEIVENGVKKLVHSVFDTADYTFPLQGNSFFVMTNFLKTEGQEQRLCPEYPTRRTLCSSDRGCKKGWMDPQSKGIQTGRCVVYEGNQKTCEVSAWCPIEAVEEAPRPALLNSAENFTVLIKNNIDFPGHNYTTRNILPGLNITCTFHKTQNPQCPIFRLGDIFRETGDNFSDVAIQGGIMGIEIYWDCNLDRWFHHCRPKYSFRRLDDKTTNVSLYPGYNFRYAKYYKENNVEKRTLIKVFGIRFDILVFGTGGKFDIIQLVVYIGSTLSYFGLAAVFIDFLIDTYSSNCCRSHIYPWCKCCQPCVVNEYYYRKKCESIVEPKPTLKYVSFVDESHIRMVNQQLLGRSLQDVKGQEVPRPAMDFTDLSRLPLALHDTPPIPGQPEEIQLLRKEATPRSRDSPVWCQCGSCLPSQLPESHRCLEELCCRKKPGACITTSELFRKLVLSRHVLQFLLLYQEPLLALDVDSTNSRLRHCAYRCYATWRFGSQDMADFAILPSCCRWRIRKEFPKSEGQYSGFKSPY
Experiment: P2X7 calcium mobilization assay, high throughput, antagonist activity (Example 4A)
Format: cell-based
Conditions: fluorescence response of cells exposed to 80 μM 2′(3′)-O-(4-benzoyl-benzoyl)adenosine 5′-triphosphate; Example 4A; read-out: IC50
Procedure, shortened: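 FLIPR^TETRA calcium read-out: maximum RFU per well minus average no-agonist control, with agonist wells giving the average positive maximum. Cells seeded at 100,000/well one day ahead, dye-loaded 1 h, rinsed, then exposed to compound for 1 h at room temperature.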

pIC50, > 5.70:
CC(C)CN(C)C(=O)c1cn2c(NC(=O)CC34CC5CC(CC(C5)C3)C4)cccc2n1 [Compound 367, 5-[(adamantan-1-ylacetyl)amino]-N-isobutyl-N-methylimidazo[1,2-a]pyridine-2-carboxamide]
CN(CC1OCCO1)C(=O)c1cn2c(NC(=O)CC34CC5CC(CC(C5)C3)C4)cccc2n1 [Compound 368, 5-[(adamantan-l-ylacetyl)amino]-N-(1,3-dioxolan-2-ylmethyl)-N-methylimidazo[1,2-a]pyridine-2-carboxamide]
CCN(C)C(=O)c1cn2c(NC(=O)CC34CC5CC(CC(C5)C3)C4)cccc2n1 [Compound 369, 5-[(adamantan-1-ylacetyl)amino]-N-ethyl-N-methylimidazo[1,2-a]pyridine-2-carboxamide]
CN(C)C(=O)c1cn2c(NC(=O)CC34CC5CC(CC(C5)C3)C4)cccc2n1 [Compound 370, 5-[(adamantan-1-ylacetyl)amino]-N,N-dimethylimidazo[1,2-a]pyridine-2-carboxamide]
COC[C@@H]1CCCN1C(=O)c1cn2c(NC(=O)CC34CC5CC(CC(C5)C3)C4)cccc2n1 [Compound 371, 2-adamantan-1-yl-N-(2-{[(2S)-2-(methoxymethyl)pyrrolidin-1-yl]carbonyl}imidazo [1,2-a]pyridin-5-yl)acetamide]
CCCCN(CC)C(=O)c1cn2c(NC(=O)CC34CC5CC(CC(C5)C3)C4)cccc2n1 [Compound 373, 5-[(adamantan-1-ylacetyl)amino]-N-butyl-N-ethylimidazo[1,2-a]pyridine-2-carboxamide]
CCCN(CCC)C(=O)c1cn2c(NC(=O)CC34CC5CC(CC(C5)C3)C4)cccc2n1 [Compound 374, 5-[(adamantan-1-ylacetyl)amino]-N,N-dipropylimidazo[1,2-a]pyridine-2-carboxamide]
CCOC(=O)CN(CC)C(=O)c1cn2c(NC(=O)CC34CC5CC(CC(C5)C3)C4)cccc2n1 [Compound 375, ethyl N-({5-[(adamantan-1-ylacetyl)amino]imidazo [1,2-a]pyridin-2-yl}carbonyl)-N-ethylglycinate]
COC(=O)C1CCCN1C(=O)c1cn2c(NC(=O)CC34CC5CC(CC(C5)C3)C4)cccc2n1 (stereo not drawn) [Compound 376, methyl 1-({5-[(adamantan-1-ylacetyl)amino]imidazo [1,2-a]pyridin-2-yl}carbonyl)prolinate]
COC(=O)CN(C)C(=O)c1cn2c(NC(=O)CC34CC5CC(CC(C5)C3)C4)cccc2n1 [Compound 377, methyl N-({5-[(adamantan-1-ylacetyl)amino]imidazo[1,2-a]pyridin-2-yl}carbonyl)-N-methylglycinate]
COCCN(C(=O)c1cn2c(NC(=O)CC34CC5CC(CC(C5)C3)C4)cccc2n1)C(C)C [Compound 379, 5-[(adamantan-1-ylacetyl)amino]-N-isopropyl-N-(2-methoxyethyl)imidazo [1,2-a]pyridine-2-carboxamide]
O=C1CCN(C(=O)c2cn3c(NC(=O)CC45CC6CC(CC(C6)C4)C5)cccc3n2)CCN1 [Compound 380, 2-adamantan-1-yl-N-{2-[(5-oxo-1,4-diazepan-1-yl)carbonl]imidazo [1,2-a]pyridin-5-yl}acetamide]
O=C(CC12CC3CC(CC(C3)C1)C2)Nc1cccc2nc(C(=O)N3CCC(C(F)(F)F)CC3)cn12 [Compound 382, 2-adamantan-1-yl-N-(2-{[4-(trifluoromethyl)piperidin-1-yl]carbonyl}imidazo[1,2-a]pyridin-5-yl)acetamide]
COC1CCN(C(=O)c2cn3c(NC(=O)CC45CC6CC(CC(C6)C4)C5)cccc3n2)CC1 [Compound 385, 2-adamantan-1-yl-N-{2-[(4-methoxypiperidin-1-yl)carbonyl]imidazo[1,2-a]pyridin-5-yl}acetamide]
O=C(CC12CC3CC(CC(C3)C1)C2)Nc1cccc2nc(C(=O)N3CCC(F)CC3)cn12 [Compound 387, 2-adamantan-1-yl-N-{2-[(4-fluoropiperidin-1-yl)carbonyl]imidazo[1,2-a]pyridin-5-yl}acetamide]
O=C(CC12CC3CC(CC(C3)C1)C2)Nc1cccc2nc(C(=O)N3CCC(F)(F)CC3)cn12 [Compound 388, 2-adamantan-l-yl-N-(2-[(4,4-difluoropiperidin-1-yl)carbonyl]imidazo [1,2-a]pyridin-5-yl}acetamide]
COCCC1CCN(C(=O)c2cn3c(NC(=O)CC45CC6CC(CC(C6)C4)C5)cccc3n2)CC1 [Compound 389, 2-adamantan-1-yl-N-(2-{[4-(2-methoxyethyl)piperidin-1-yl]carbonyl}imidazo[1,2-a]pyridin-5-yl)acetamide]
CN(C(=O)c1cn2c(NC(=O)CC34CC5CC(CC(C5)C3)C4)cccc2n1)C1CCOC1 (stereo not drawn) [Compound 393, 5-[(adamantan-1-ylacetyl)amino]-N-methyl-N-(tetrahydrofuran-3-yl)imidazo[1,2-a]pyridine-2-carboxamide]
COCC1CCN(C(=O)c2cn3c(NC(=O)CC45CC6CC(CC(C6)C4)C5)cccc3n2)CC1 [Compound 396, 2-adamantan-1-yl-N-(2-{[4-(methoxymethyl)piperidin-1-yl]carbonyl}imidazo[1,2-a]pyridin-5-yl)acetamide]
CS(=O)(=O)NC1CCN(C(=O)c2cn3c(NC(=O)CC45CC6CC(CC(C6)C4)C5)cccc3n2)CC1 [Compound 398, 2-adamantan-1-yl-N-[2-({4-[(methylsulfonyl)amino]piperidin-1-yl}carbonyl)imidazo [1,2-a]pyridin-5-yl]acetamide]
CS(=O)(=O)N1CCN(C(=O)c2cn3c(NC(=O)CC45CC6CC(CC(C6)C4)C5)cccc3n2)CC1 [Compound 399, 2-adamantan-1-yl-N-(2-{[4-(methylsulfonyl)piperazin-1-yl]carbonyl}imidazo [1,2-a]pyridin-5-yl)acetamide]
CN(C)[S@SP3](=O)(=O)N1CCN(C(=O)c2cn3c(NC(=O)CC45CC6CC(CC(C6)C4)C5)cccc3n2)CC1 [Compound 400, 2-adamantan-1-yl-N-(2-{[4-(dimethylsulfamoyl)piperazin-1-yl]carbonyl}imidazo [1,2-a]pyridin-5-yl)acetamide]
CC(C)C(=O)NC1CCN(C(=O)c2cn3c(NC(=O)CC45CC6CC(CC(C6)C4)C5)cccc3n2)CC1 [Compound 402, N-[1-({5-[(adamantan-1-ylacetyl)amino]imidazo[1,2-a]pyridin-2-yl}carbonyl)piperidin-4-yl]-2-methylpropanamide]
CN(CCNS(C)(=O)=O)C(=O)c1cn2c(NC(=O)CC34CC5CC(CC(C5)C3)C4)cccc2n1 [Compound 404, 5-[(adamantan-1-ylacetyl)amino]-N-methyl-N-{2-[(methylsulfonyl)amino]ethyl} imidazo[1,2-a] pyridine-2-carboxamide]
CN(CCO)C(=O)c1cn2c(NC(=O)CC34CC5CC(CC(C5)C3)C4)cccc2n1 [Compound 405, 5-[(adamantan-1-ylacetyl)amino]-N-(2-hydroxyethyl)-N-methylimidazo[1,2-a]pyridine-2-carboxamide]
O=C(CC12CC3CC(CC(C3)C1)C2)Nc1cccc2nc(C(=O)N(CCO)C3CCCCC3)cn12 [Compound 407, 5-[(adamantan-1-ylacetyl)amino]-N-cyclohexyl-N-(2-hydroxyethyl)imidazo [1,2-a]pyridine-2-carboxamide]
CC(=O)NC1CCN(C(=O)c2cn3c(NC(=O)CC45CC6CC(CC(C6)C4)C5)cccc3n2)CC1 [Compound 408, N-{2-[(4-acetamidopiperidin-1-yl)carbonyl]imidazo[1,2-a]pyridin-5-yl}-2-adamantan-1-ylacetamide]
CCCC(=O)NC1CCN(C(=O)c2cn3c(NC(=O)CC45CC6CC(CC(C6)C4)C5)cccc3n2)CC1 [Compound 409, N-[1-({5-[(adamantan-1-ylacetyl)amino]imidazo[1,2-a]pyridin-2-yl}carbonyl)piperidin-4-yl]butanamide]
CCCCCN(CCO)C(=O)c1cn2c(NC(=O)CC34CC5CC(CC(C5)C3)C4)cccc2n1 [Compound 410, 5-[(adamantan-1-ylacetyl)amino]-N-(2-hydroxyethyl)-N-pentylimidazo[1,2-a]pyridine-2-carboxamide]
CC(C)(C)NCCOC(=O)c1cn2c(NC(=O)CC34CC5CC(CC(C5)C3)C4)cccc2n1 [Compound 411, 2-(tert-butylamino)ethyl 5-[(adamantan-1-ylacetyl)amino] imidazo [1,2-a]pyridine-2-carboxylate]
